We go through 5 molecules from ChEMBL document CHEMBL1649573, “Protein kinase G is required for intrinsic antibiotic resistance in mycobacteria” (2009).

Values after ≈ are worked out from the molar mass of the structure shown.

This assay concerns Mycolicibacterium smegmatis. In words: Antimycobacterial activity against PknGMsm-deficient Mycobacterium smegmatis harboring PknG Mtb gene by Etest method. The format is functional.

`CC[C@H]1OC(=O)[C@H](C)[C@@H](O[C@H]2C[C@@](C)(OC)[C@@H](O)[C@H](C)O2)[C@H](C)[C@@H](O[C@@H]2O[C@H](C)C[C@H](N(C)C)[C@H]2O)[C@](C)(O)C[C@@H](C)C(=O)[C@H](C)[C@@H](O)[C@]1(C)O` [ERYTHROMYCIN] displayed an MIC of 32 µg/mL (≈ 43.6 µM). In turn, `CC[C@@H](CO)NCCN[C@@H](CC)CO` [ETHAMBUTOL] displayed an MIC of 0.25 µg/mL (≈ 1.22 µM). This MIC lies about 130-fold lower than the previous one. For `C[C@@H](O)[C@H]1C(=O)N2C(C(=O)O)=C(SCCNC=N)C[C@H]12` [IMIPENEM ANHYDROUS], the MIC was found to be 6 µg/mL (≈ 20 µM). Against the preceding molecule, the MIC is about 24-fold higher. `CO[C@H]1/C=C/O[C@@]2(C)Oc3c(C)c(O)c4c(O)c(c(/C=N/N5CCN(C)CC5)c(O)c4c3C2=O)NC(=O)/C(C)=C\C=C\[C@H](C)[C@H](O)[C@@H](C)[C@@H](O)[C@@H](C)[C@H](OC(C)=O)[C@@H]1C` [RIFAMPIN] returned an MIC of over 32 µg/mL. For the molecule `CN[C@H](CC(C)C)C(=O)N[C@H]1C(=O)N[C@@H](CC(N)=O)C(=O)N[C@H]2C(=O)N[C@H]3C(=O)N[C@H](C(=O)N[C@H](C(=O)O)c4cc(O)cc(O)c4-c4cc3ccc4O)[C@H](O)c3ccc(c(Cl)c3)Oc3cc2cc(c3O[C@@H]2O[C@H](CO)[C@@H](O)[C@H](O)[C@H]2O[C@H]2C[C@](C)(N)[C@H](O)[C@H](C)O2)Oc2ccc(cc2Cl)[C@H]1O` [VANCOMYCIN], the MIC came out at 48 µg/mL (≈ 33.1 µM).
